Laboratory results as given in patent US8697685B2, “Chemical compounds” (GlaxoSmithKline LLC, priority 2008, dated 2014).

The compounds below were run on AKT phosphorylation at T308 in PC-3 cells (assay: Phospho-AKT (T308) ELISA in PC3 cells). Settings: Homo sapiens, 6 hours compound treatment, in at least one experimental run, read-out: IC50 for inhibition of AKT phosphorylation at T308 in PC-3 cells.
Type: cell-based
Method: Phospho-AKT (S473, T308, Total AKT) and phospho-RSK ELISA
PC3 cells (ATCC, Manassas, Va.) were plated in 96-well flat bottom plates (Corning, Lowell, Mass.) at a density of 15,000 cells/well in RPMI 1640 medium supplemented with 10% FBS. Cells were incubated at 37° C., 5% CO2 for 18-20 h. Compounds (dissolved in 100% DMSO) were diluted in an 11-point 3-fold dilution in DMSO. Compound dilution stocks were further diluted in RPMI 1640 with 10% FBS and added to each cell well. DMSO without compound was used in control wells. Final concentration of DMSO in each well was 0.15%. After 6 hours at 37° C. cells were washed with cold PBS (without calcium or magnesium) and lysed in lysis buffer (Meso Scale Discovery, Gaithersburg, Md.) supplemented with 1 protease inhibitor tablet/10 ml (Roche, Indianapolis, Ind.), 10 mM NaF, and 200 μl/10 ml Sigma phosphatase inhibitor 1 & 2 (Sigma Aldrich, St Louis, Mo.) for 30 min at 4° C. All washes were performed on a Bio Tek ELx405 plate washer (Bio Tek Instruments, Winooski, Vt.).
ELISA plates (Meso Scale Discovery; AKT Duplex, cat. N41100B-1; phospho AKT, cat. N411CAB-1; RSK, cat. N41ZB-1) were prepared by the addition of blocking buffer (3% Blocker A diluted in wash buffer (Meso Scale Discovery) for AKT duplex assay and phospho AKT assays; 5% Blocker A/1% Blocker B in Tris-buffered saline for RSK) for 1 hour and washed with wash buffer. Lysates were transferred to assay wells and incubated overnight at 4° C. Following washing with wash buffer, detection buffer (1% Blocker A in wash buffer for AKT duplex and phospho AKT or 1% Blocker A in TBS for RSK) with appropriate antibodies was added. Detection of AKT duplex and phospho AKT was carried out using a sulfo-tagged detection antibodies (Meso Scale Discovery). Detection of phospho-RSK was carried out sequentially with anti phospho-RSK1 (S221)/RSK2 (S227) (R&D systems, Minneapolis, Minn., cat. AF892) and goat anti-rabbit sulfo-tag antibody (cat R32AB-1; Meso Scale Discovery). Plates were incubated for 1 hour at room temperature and washed with wash buffer. Plates were read on a SECTOR™ Imager 6000 (Meso Scale Discovery) using Workbench software (Meso Scale Discovery) following addition of read buffer (Meso Scale Discovery) to each well. For analysis, phospho-AKT (S473) signals were normalized to total AKT, while phospho-AKT (T308) and phospho-RSK signals were analyzed without normalization. All values were expressed as percent of the DMSO-treated controls. IC50s were determined from inhibition curves using XLfit4 software (IDBS, Guildford, UK).

IC50 [nM] | SMILES
< 1000 | CNc1nc(-c2ccc3c(N)n[nH]c3c2)cc(N2CC(C(=O)NC3CCCCC3)CCC2C(F)(F)F)n1 (stereo not drawn) [Example 49, Cis-1-[6-(3-Amino-1H-indazol-6-yl)-2-(methylamino)-4-pyrimidinyl]-N-cyclohexyl-6-(trifluoromethyl)-3-piperidinecarboxamide]
< 1000 | CC1CCC(NC(=O)[C@H]2CC[C@@H](C)N(c3cc(-c4ccc5c(N)n[nH]c5c4)nc(N)n3)C2)CC1 (stereo partly drawn) [Example 150, (3S,6R)-1-[2-Amino-6-(3-amino-1H-indazol-6-yl)-4-pyrimidinyl]-6-methyl-N-(4-methylcyclohexyl)-3-piperidinecarboxamide]
< 1000 | CNc1nc(-c2cc(F)c3c(N)n[nH]c3c2)cc(N2C[C@@H](C(=O)NCc3ccccc3)CC[C@H]2C)n1 [Example 86, (3S,6R)-1-[6-(3-Amino-4-fluoro-1H-indazol-6-yl)-2-(methylamino)-4-pyrimidinyl]-6-methyl-N-(phenylmethyl)-3-piperidinecarboxamide]
< 1000 | CC[C@@H]1CO[C@H](C(=O)NCc2ccccc2)CN1c1cc(-c2ccc3c(N)n[nH]c3c2)nc(NC)n1 [Example 176, (2S,5R)-4-[6-(3-Amino-1H-indazol-6-yl)-2-(methylamino)-4-pyrimidinyl]-5-ethyl-N-(phenylmethyl)-2-morpholinecarboxamide]
< 1000 | C[C@@H]1CC[C@H](C(=O)NC2CCCCC2)CN1c1cc(-c2ccc3c(N)n[nH]c3c2)nc(N)n1 [Example 121, (3S,6R)-1-[2-Amino-6-(3-amino-1H-indazol-6-yl)-4-pyrimidinyl]-N-cyclohexyl-6-methyl-3-piperidinecarboxamide]
< 1000 | CNc1nc(-c2ccc3cn[nH]c3c2)cc(N2C[C@@H](C(=O)NCc3ccccc3)CC[C@H]2C)n1 [Example 81, (3S,6R)-1-[6-(1H-Indazol-6-yl)-2-(methylamino)-4-pyrimidinyl]-6-methyl-N-(phenylmethyl)-3-piperidinecarboxamide]
< 1000 | CNc1nc(-c2ccc3c(N)n[nH]c3c2)cc(N2C[C@@H](C(=O)Nc3ccccc3)CC[C@H]2C)n1 [Example 77, (3S,6R)-1-[6-(3-amino-1H-indazol-6-yl)-2-(methylamino)-4-pyrimidinyl]-6-methyl-N-phenyl-3-piperidinecarboxamide]

SMILES | IC50 [nM]
CNc1nc(-c2ccc3c(N)n[nH]c3c2)cc(N2C[C@@H](C(=O)NC3CCCCC3)CC[C@H]2C)n1 [Example 78, (3S,6R)-1-[6-(3-Amino-1H-indazol-6-yl)-2-(methylamino)-4-pyrimidinyl]-N-cyclohexyl-6-methyl-3-piperidinecarboxamide] | < 1000
C[C@@H]1C[C@@H](NC(=O)OC(C)(C)C)CN(c2cc(-c3ccc4c(N)n[nH]c4c3)nc(N)n2)C1 [Example 212, 1,1-Dimethylethyl{(3R,5R)-1-[2-amino-6-(3-amino-1H-indazol-6-yl)-4-pyrimidinyl]-5-methyl-3-piperidinyl}carbamate] | < 1000
C[C@@H]1CO[C@H](C(=O)Nc2ccccc2)CN1c1cc(-c2ccc3c(N)n[nH]c3c2)nc(N)n1 [Example 67, (2S,5R)-4-[2-Amino-6-(3-amino-1H-indazol-6-yl)-4-pyrimidinyl]-5-methyl-N-phenyl-2-morpholinecarboxamide] | < 1000
